# Measurements reported in ChEMBL document CHEMBL5729324, “Aromatic heterocyclic substituted olefin compound, preparation method for same, pharmaceutical composition of same, and applications thereof” (2022).
# Target: T1, TGF-beta receptor type-1 (Homo sapiens, UniProt P36897)
# T1 sequence (P36897 whole entry): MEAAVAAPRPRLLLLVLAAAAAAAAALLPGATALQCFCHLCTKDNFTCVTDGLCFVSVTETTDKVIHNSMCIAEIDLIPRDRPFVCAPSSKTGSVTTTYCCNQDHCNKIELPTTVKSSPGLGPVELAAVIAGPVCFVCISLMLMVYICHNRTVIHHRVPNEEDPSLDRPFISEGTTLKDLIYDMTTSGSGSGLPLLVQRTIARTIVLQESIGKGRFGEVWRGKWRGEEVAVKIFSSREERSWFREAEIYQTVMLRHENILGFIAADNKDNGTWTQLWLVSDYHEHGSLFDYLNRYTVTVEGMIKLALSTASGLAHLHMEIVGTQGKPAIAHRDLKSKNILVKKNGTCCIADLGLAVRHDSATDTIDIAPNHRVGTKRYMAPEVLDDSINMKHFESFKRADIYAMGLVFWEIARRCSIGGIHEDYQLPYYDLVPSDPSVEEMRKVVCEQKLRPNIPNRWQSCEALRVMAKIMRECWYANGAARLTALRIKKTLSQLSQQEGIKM
# Test: Enzyme Activity Inhibition: 1. Preparation of a 1× kinase buffer: 40 mM Tris (pH 7.5), 20 mM MgCl2, 0.10% BSA, 1 mM DTT.2. Compound preparation: The final detection concentration of the compound was 10 μM, which was prepared to a 100-fold concentration, i.e., 1 mM. 100 μL of the 100-fold compound was added in the second well of the 384-well plate, and 60 μL of 100% DMSO was added to the other wells. […] 50 nL of the compound was transferred to the reaction plate with echo.3. Kinase reaction: The kinase was added to a 1× kinase buffer to form a 2× enzyme solution. […] The polypeptide TGFbR1 (purchased from Signal Chem, catalog number T36-58) and ATP were added to a 1× kinase buffer to form a 2× substrate solution. The final concentration of the substrate solution was peptide TGFbR1 0.1 mg/mL, ATP 7 μM. 2.5 μL of the 2× enzyme solution was added to the 384-well reaction plate (there was already 50 nL of 100% DMSO dissolved compound), and a 1× kinase buffer was added to a negative control well. The reaction solution was incubated at room temperature for 10 minutes. 2.5 μL of 2× substrate solution was added to the 384-well reaction plate. The 384-well plate was covered and incubated at 30° C. for 1 hour. ADP-Glo reagent (purchased from Promege, catalog number v9102) was equilibrated to room temperature. 5 μL of ADP-Glo reagent was transferred to the reaction well of the 384-well plate to stop the reaction.4. Detection of reaction results: 10 μL of kinase detection reagent was transferred to each well, shaken for 1 minute, and let stand at room temperature for 30 minutes. The sample luminescence value was read at Synegy.
row,Structure (SMILES),IC50
1,CNC(=O)/C(=C/c1cccc(C)n1)c1ccc2ncc(C(N)=O)n2c1,207 nM
2,Cc1cccc(/C=C\c2ccc3ncc(-c4nnn[nH]4)n3c2)n1,21 nM
3,Cc1cccc(/C=C\c2ccc3ncc(C(=O)NCCN4CCOCC4)n3c2)n1,44 nM
4,Cc1cccc(/C=C(/C(=O)N2CCCCC2)c2ccc3ncc(C#N)n3c2)n1,4950 nM
5,Cc1cccc(/C=C(/C(N)=O)c2ccc3ncc(C(N)=O)n3c2)n1,328 nM
6,Cc1cccc(/C=C(/C(=O)N2CCCCC2)c2ccc3ncc(C(N)=O)n3c2)n1,58 nM
7,COC(=O)/C(=C/c1cccc(C)n1)c1ccc2ncc(C(N)=O)n2c1,7.4 nM

# Further lines, results first:
row,IC50,Structure (SMILES)
1,56 nM,CCOC(=O)c1cnc2ccc(/C=C\c3cccc(OC)n3)cn12
2,33 nM,Cc1csc(/C=C\c2ccc3ncc(C(N)=O)n3c2)n1
3,25 nM,Cc1cccc(/C=C\c2ccc3ncc(C#N)n3c2)n1
4,8.5 nM,Cc1ccc(F)c(/C=C\c2ccc3ncc(C(N)=O)n3c2)n1
5,372 nM,Cc1cccc(/C=C/c2ccc3ncc(C(N)=O)n3c2)n1
6,15 nM,COc1cccc(/C=C\c2ccc3ncc(C(N)=O)n3c2)n1
